Laboratory results published in patent US8536172B2, “Inhibitors of JNK” (Roche Palo Alto LLC, priority 2009, dated 2013).

What was measured:
Human JNK1α1 = Human JNK1α1 (Homo sapiens (Human), UniProt P45983); test: JNK assay in vitro: phosphorylation of GST-ATF2 (19-96) with [γ-33P] ATP, JNK1; format: biochemical; settings: 2 nM enzyme, 1 μM ATF2, 6 μM ATP (Km), 30° C. 30 min
Description: JNK activity was measured by phosphorylation of GST-ATF2 (19-96) with [γ-^33P] ATP. […] Human JNK2α2 assay contains 1 nM enzyme, 1 μM ATF2, 8 μM ATP with 1 uCi [γ-^33P] ATP. Human JNK1α1 assay contains 2 nM enzyme, 1 μM ATF2, 6 μM ATP with 1 μCi [γ-^33P] ATP. […] ATP. The enzyme assay was carried out in the presence or absence of several compound concentrations. JNK and compound were pre-incubated for 10 min., followed by initiation of the enzymatic reaction by adding ATP and the substrate. The reaction mixture was incubated at 30° C. for 30 min. […] The incorporation of ^33P into ATF2 was quantified on a microplate scintillation counter (Packard Topcount). Compound inhibition potency on JNK was measured by IC50 value generated from ten concentration inhibition curves fitted into the 3-parameter model: % inhibition=Maximum/(1+(IC50/[Inhibitor])^slope). Data were analyzed on Microsoft Excel for parameter estimation.

Human JNK2α2 = Human JNK2α2 (Homo sapiens (Human), UniProt P45984); test: JNK assay in vitro: phosphorylation of GST-ATF2 (19-96) with [γ-33P] ATP, JNK2; format: biochemical; settings: 1 nM enzyme, 1 μM ATF2, 8 μM ATP (Km), 30° C. 30 min
Description: JNK activity was measured by phosphorylation of GST-ATF2 (19-96) with [γ-^33P] ATP. […] Human JNK2α2 assay contains 1 nM enzyme, 1 μM ATF2, 8 μM ATP with 1 uCi [γ-^33P] ATP. Human JNK1α1 assay contains 2 nM enzyme, 1 μM ATF2, 6 μM ATP with 1 μCi [γ-^33P] ATP. Human JNK3 (Upstate Biotech #14-501M) assay contains 2 nM enzyme, 1 μM ATF2, 4 μM ATP with 1 μCi [γ-^33P] ATP. The enzyme assay was carried out in the presence or absence of several compound concentrations. JNK and compound were pre-incubated for 10 min., followed by initiation of the enzymatic reaction by adding ATP and the substrate. The reaction mixture was incubated at 30° C. for 30 min. At the end of incubation, the reaction was terminated by transferring 25 μl of the reaction mixture to 150 μl of 10% glutathione Sepharose® slurry (Amersham #27-4574-01) containing 135 mM EDTA. The reaction product was captured on the affinity resin, and washed on a filtration plate (Millipore, MABVNOB50) with phosphate buffered saline for six times to remove free radionucleotide. The incorporation of ^33P into ATF2 was quantified on a microplate scintillation counter (Packard Topcount). Compound inhibition potency on JNK was measured by IC50 value generated from ten concentration inhibition curves fitted into the 3-parameter model: % inhibition=Maximum/(1+(IC50/[Inhibitor])^slope). Data were analyzed on Microsoft Excel for parameter estimation.

Sequence of Human JNK1α1 (P45983 other isoform, or with tags, fused parts or gaps): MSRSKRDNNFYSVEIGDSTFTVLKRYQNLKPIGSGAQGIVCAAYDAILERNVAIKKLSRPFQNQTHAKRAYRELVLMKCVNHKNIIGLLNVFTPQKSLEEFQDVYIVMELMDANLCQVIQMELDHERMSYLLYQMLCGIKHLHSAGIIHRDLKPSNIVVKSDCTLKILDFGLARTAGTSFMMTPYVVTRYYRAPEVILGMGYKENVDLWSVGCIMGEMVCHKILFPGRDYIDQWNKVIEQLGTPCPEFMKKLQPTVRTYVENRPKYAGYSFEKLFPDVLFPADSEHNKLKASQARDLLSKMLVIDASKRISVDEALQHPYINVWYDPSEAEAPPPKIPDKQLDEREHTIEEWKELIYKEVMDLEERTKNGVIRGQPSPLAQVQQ
Sequence of Human JNK2α2 (P45984 whole entry): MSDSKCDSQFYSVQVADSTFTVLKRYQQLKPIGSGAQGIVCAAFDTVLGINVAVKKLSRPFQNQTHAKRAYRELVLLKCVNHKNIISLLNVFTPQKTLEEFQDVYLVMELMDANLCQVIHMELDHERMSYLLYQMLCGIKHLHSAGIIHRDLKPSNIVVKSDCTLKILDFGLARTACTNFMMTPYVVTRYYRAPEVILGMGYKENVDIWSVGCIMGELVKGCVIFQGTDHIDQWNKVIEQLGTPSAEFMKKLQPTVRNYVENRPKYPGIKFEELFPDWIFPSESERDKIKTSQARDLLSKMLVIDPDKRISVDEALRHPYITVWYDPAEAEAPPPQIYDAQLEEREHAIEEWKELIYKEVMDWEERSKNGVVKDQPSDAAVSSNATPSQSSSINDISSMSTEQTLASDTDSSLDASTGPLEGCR

| Compound | IC50 (Human JNK1α1) [nM] | IC50 (Human JNK2α2) [nM] |
| --- | --- | --- |
| CC(=O)N[C@H]1CC[C@H](Nc2nccc(-n3ccc4c(N5CCC(S(C)(=O)=O)CC5)cccc43)n2)CC1 [Compound I-13, N-(4-{4-[4-(4-Methanesulfonyl-piperidin-1-yl)-indol-1-yl]-pyrimidin-2-ylamino}-cyclohexyl)-acetamide] | 6.6 | 49.3 |
| CC(=O)N1CCN(c2cccc3c2ccn3-c2ccnc(NC3CCCCC3)n2)CC1 [Compound I-37, 1-{4-[1-(2-Cyclohexylamino-pyrimidin-4-yl)-1H-indol-4-yl]-piperazin-1-yl}-ethanone] | 48.4 | 4030 |
| N#CCC(=O)N1CCN(c2cccc3c2ccn3-c2ccnc(N[C@H]3CC[C@@H](O)CC3)n2)CC1 [Compound I-57, 3-(4-{1-[2-(4-Hydroxy-cyclohexylamino)-pyrimidin-4-yl]-1H-indol-4-yl}-piperazin-1-yl)-3-oxo-propionitrile] | 15.9 | 88.4 |
| CS(=O)(=O)C1CCN(c2cccc3c2ccn3-c2ccnc(N[C@H]3CC[C@H](C(=O)N4CCn5c(nnc5C(F)(F)F)C4)CC3)n2)CC1 [Compound I-51, (4-{4-[4-(4-Methanesulfonyl-piperidin-1-yl)-indol-1-yl]-pyrimidin-2-ylamino}-cyclohexyl)-(3-trifluoromethyl-5,6-dihydro-8H-[1,2,4]triazolo[4,3-a]pyrazin-7-yl)-methanone] | 3.6 | 6.2 |
| CN(C)S(=O)(=O)N[C@H]1CC[C@H](Nc2nccc(-n3ccc4c(N5CCC(S(C)(=O)=O)CC5)cccc43)n2)CC1 [Compound I-15, [4-{4-[4-(4-Methanesulfonyl-piperidin-1-yl)-indol-1-yl]-pyrimidin-2-ylamino}-cyclohexyl]aminodimethylsulfonamide] | 3.6 | 20.8 |
| CC(=O)N1CCN(c2cccc3c2ccn3-c2ccnc(N[C@H]3CC[C@H](CS(C)(=O)=O)CC3)n2)CC1 [Compound I-41, 1-(4-{1-[2-(4-Methanesulfonylmethyl-cyclohexylamino)-pyrimidin-4-yl]-1H-indol-4-yl}-piperazin-1-yl)-ethanone] | 25 | 164 |
| CS(=O)(=O)N[C@H]1CC[C@H](Nc2nccc(-n3ccc4c(N5CCC(O)CC5)cccc43)n2)CC1 [Compound I-4, N-(4-{4-[4-(4-Hydroxy-piperidin-1-yl)-indol-1-yl]-pyrimidin-2-ylamino}-cyclohexyl)-methanesulfonamide] | 42.9 | 292 |
| N#CCC(=O)N1CCN(c2cccc3c2ccn3-c2ccnc(N[C@H]3CC[C@H](CN4CC[C@@H](O)C4)CC3)n2)CC1 [Compound I-25, 3-[4-(1-{2-[4-((R)-3-Hydroxy-pyrrolidin-1-ylmethyl)-cyclohexylamino]-pyrimidin-4-yl}-1H-indol-4-yl)-piperazin-1-yl]-3-oxo-propionitrile] | 4.2 | 25.6 |
| N#CCC(=O)N1CCN(c2cccc3c2ccn3-c2ccnc(N[C@H]3CC[C@H](O)CC3)n2)CC1 [Compound I-55, 3-(4-{1-[2-(4-Hydroxy-cyclohexylamino)-pyrimidin-4-yl]-1H-indol-4-yl}-piperazin-1-yl)-3-oxo-propionitrile] | 4.4 | 23.1 |
| CS(=O)(=O)C1CCN(c2cccc3c2cnn3-c2ccnc(N[C@H]3CC[C@H](O)CC3)n2)CC1 [Compound I-66, 4-{4-[4-(4-Methanesulfonyl-piperidin-1-yl)-indazol-1-yl]-pyrimidin-2-ylamino}-cyclohexanol] | 5.8 | 16.7 |
| CC(=O)OCC(=O)N1CCN(c2cccc3c2ccn3-c2ccnc(N[C@H]3CC[C@H](NS(C)(=O)=O)CC3)n2)CC1 [Compound I-10, Acetic acid 2-(4-{1-[2-(4-methanesulfonylamino-cyclohexylamino)-pyrimidin-4-yl]-1H-indol-4-yl}-piperazin-1-yl)-2-oxo-ethyl ester] | 10.4 | 74.9 |
| CC(C)(C)OC(=O)NCC(=O)N1CCN(c2cccc3c2ccn3-c2ccnc(N[C@H]3CC[C@H](NS(C)(=O)=O)CC3)n2)CC1 [Compound I-22, [2-(4-{1-[2-(4-Methanesulfonylamino-cyclohexylamino)-pyrimidin-4-yl]-1H-indol-4-yl}-piperazin-1-yl)-2-oxo-ethyl]-carbamic acid tert-butyl ester] | 3.6 | 26.4 |
| O[C@H]1CC[C@H](Nc2nccc(-n3ccc4c(N5CCCCC5)cccc43)n2)CC1 [Compound I-2, 4-[4-(4-Piperidin-1-yl-indol-1-yl)-pyrimidin-2-ylamino]-cyclohexanol] | 93.9 | 654 |
| CS(=O)(=O)N[C@H]1CC[C@H](Nc2nccc(-n3ccc4c(N5CCN(C(=O)CC#N)CC5)cccc43)n2)CC1 [Compound I-9, N-[4-(4-{4-[4-(2-Cyano-acetyl)-piperazin-1-yl]-indol-1-yl}-pyrimidin-2-ylamino)-cyclohexyl]-methanesulfonamide] | 5.4 | 36.2 |
| CC(=O)N1CCN(c2cccc3c2ccn3-c2ccnc(N[C@H]3CC[C@H](C(=O)N4CCC(O)CC4)CC3)n2)[C@H](C)C1 [Compound I-21, 1-[(R)-4-(1-{2-[4-(4-Hydroxy-piperidine-1-carbonyl)-cyclohexylamino]-pyrimidin-4-yl}-1H-indol-4-yl)-3-methyl-piperazin-1-yl]-ethanone] | 31.2 | 138 |
| CCN1CCN(C(=O)[C@H]2CC[C@H](Nc3nccc(-n4ccc5c(N6CCN(C(=O)CC#N)CC6)cccc54)n3)CC2)CC1 [Compound I-56, 3-[4-(1-{2-[4-(4-Ethyl-piperazine-1-carbonyl)-cyclohexylamino]-pyrimidin-4-yl}-1H-indol-4-yl)-piperazin-1-yl]-3-oxo-propionitrile] | 9.2 | 18.7 |
| CC(=O)N1CCN(c2cccc3c2c(C(N)=O)cn3-c2ccnc(N[C@H]3CC[C@H](O)CC3)n2)CC1 [Compound I-63, 4-(4-Acetyl-piperazin-1-yl)-1-[2-(4-hydroxy-cyclohexylamino)-pyrimidin-4-yl]-1H-indole-3-carboxylic acid amide] | 12.4 | 25.7 |
| CN(C)CCN([C@H]1CC[C@H](Nc2nccc(-n3ccc4c(N5CCN(C(=O)CC#N)CC5)cccc43)n2)CC1)S(C)(=O)=O [Compound I-26, N-[4-(4-{4-[4-(2-Cyano-acetyl)-piperazin-1-yl]-indol-1-yl}-pyrimidin-2-ylamino)-cyclohexyl]-N-(2-dimethylamino-ethyl)-methanesulfonamide] | 3.7 | 24.6 |
